Assay results as given in patent US7964643B2, “Aryl alkyl sulfonamides as therapeutic agents for the treatment of bone conditions” (The University Court of the University of Aberdeen, priority 2004, dated 2011).

How the values were obtained:
[1] = system: osteoclast precursors; assay: Murine co-culture system, osteoclast formation (osteoclast number by TRAcP staining); type: cell-based; conditions: Mus musculus, after 72 hours exposure, FIG. 2, read-out: IC50 against osteoclast precursors (FIG. 2)
Description: The first model system, the murine co-culture system, studies the formation of osteoclasts from precursors present in the bone marrow. The number of osteoclasts and the amount of dentine resorption was measured.
Osteoclast formation and activity was studied using an adaptation (see, e.g., van't H of & Ralston, 1997) of the osteoblast-bone marrow co-culture assay originally described by Takahashi et al., 1988.
Co-Culture Methods. Co-culture (see, e.g., Van't H of et al., 1997) is a method to study the formation of osteoclasts from their precursors. In this assay, osteoblasts were obtained from the calvaria of 2-3 day old neonatal mice. […] At the end of the culture osteoclasts were identified by TRAcP staining and the resorption activity was measured in the same manner as for rabbit osteoclasts.
Osteoblast Plating. […] The cells were counted and then seeded in a 96 well plated containing dentine slices, at 8×10^3 cells per well in 100 μl medium containing 1000× dilution of stock 1,25-dihydroxyvitamin D3 (final conc. 10 nM/well) to stimulate the expression of RANKL and cultured overnight. […]
More specifically, the femurs and tibia were dissected from 2-3 adult C57/bl6 mice (3-6 months old) and the surrounding tissue was removed. […] The bone marrow cells were counted and then added to the 96 well plate containing the osteoblasts at 2×10^5 cells/well in 50 μL medium. […]

[2] = system: J774 macrophage cell line; assay: Alamar Blue macrophage J774 viability assay; type: cell-based; conditions: Mus musculus, J774, 72 h, 72 hours culture with compound, Alamar Blue, read-out: IC50 (J774)
Description: Initial screening of candidate compounds was performed using viability assays, on cultures of the macrophage cell line J774, which have been used before as a model system for osteoclast survival (see, e.g., Luckman et al., 1998). The assays are based on the survival of the J774 macrophage cell line; macrophages are closely related to osteoclasts, and contain similar high levels of esterase activity.
J774 cells were plated at 10^4 cells per well in 150 μL αMEM (α Modified Eagle Medium) in 96-well plates and grown overnight. The next day, compounds were added to the cultures, and culture was continued for another 72 hours. At the end of the culture period cell survival was determined using an Alamar Blue assay as previously described (see, e.g., Nociari et al., 1998).
Alamar Blue is an oxidation-reduction sensitive indicator. The dye itself is in the oxidised state, which is blue and non-fluorescent. The dye can accept electrons from reducing species, such as NADPH and FADH, to form a reduced dye species, which is red and fluorescent. Thus the transformation from oxidised form to reduced form can be measured by fluorimetric or colourimetric means. For fluorescence measurements, 530-560 nm excitation and 590 nm emission wavelengths are typically used. For colourimetric measurements, absorbance is measured at 570 nm (reduced form) and 600 nm (oxidised form) and a simple calculation performed to determine the relative quantities of the two species.
A high ratio of the reducing species, NADPH and FADH, to the corresponding oxidised species, NADP and FAD, is an indicator that cells are proliferating and viable. A low ratio indicates cells that are quiescent or non-viable.
Briefly, Alamar Blue (Biosource International) was added undiluted to the each well (1:10 v/v, 15 μL). The plate was incubated at 37° C. for 3-4 hours and the fluorescence was measured at 570 nm, with a 25 nm bandwidth. A high reading indicated cells with normal viability, and a low reading indicates cells that have been damaged and are no longer proliferating normally. The controls gave a high fluorescence reading, indicating a high number of live, healthy cells. A potent test compound gave a low fluorescence reading. The average results for each test compound (n=5) were expressed as a percent (%) of the average control value.
Addition of Compounds. All of the compounds studied were made up as 100 mM solutions in DMSO. These stock solutions were then diluted 100 or 1000× in culture medium (αMEM). From these 1 mM or 100 μM solutions, convenient quantities (3-15 μL) were added directly to the wells so as to give the desired final compound concentration.

Cc1cc(S(=O)(=O)NCCCCO)ccc1-c1ccc(F)cc1F [ABD-295, 2′,4′-Difluoro-2-methylbiphenyl-4-sulfonic acid-(4-hydroxybutyl)-amide]
IC50 [1]: 200 nM | IC50 [2]: 800 ± 100 nM
